In patent US20150104868A1, “Methods of Maintaining and Improving Biological Cell Function and Activity” (GARGILL INCORPORATED, priority 2012, published 2015):

Tested on: CRL 1730 HUVECs
Test: Microarray transcriptomics of HUVEC (HGERT/HG, HG/NG)
Assay type: cell-based, human
[1] = HUVEC, 5 mM ERT + 30 mM glucose vs 30 mM glucose
[2] = Prostate cancer, 8MP signaling pathway
[3] = Prostate cancer, Calcium/calmodulin
[4] = Prostate cancer, Carbohydrate binding
[5] = Prostate cancer, DNA binding, second listing
[6] = Prostate cancer, ILK signaling (integrin linked kinase)
[7] = Prostate cancer, Reactive oxygen species
[8] = Prostate cancer, Tyrosine phosphatase activity
[9] = Prostate cancer, Zinc ion transport

Structure (SMILES): OC[C@@H](O)[C@@H](O)CO [ERT, meso-1,2,3,4-tetrahydroxybutane]
- HGERT/HG transcript TRIT1 [1]: 0.98 Ω
- HGERT/HG transcript TXNDC11 [1]: Ψ 1.01
- HGERT/HG transcript U8A3 [1]: 0.99
- HGERT/HG transcript USP22 [1]: Ψ 1.01
- HGERT/HG transcript VIM [1]: 1.00 Ω
- HGERT/HG transcript VPS4B [1]: 0.99 Ω
- HGERT/HG transcript VPS26A [1]: 0.99
- HGERT/HG transcript WDFY2 [1]: Ψ 1.01
- HGERT/HG transcript YME1L1 [1]: 1.00 Ω
- HGERT/HG transcript ZMYM1 [1]: 0.98 Ω
- HGERT/HG transcript ZNF59B [1]: 0.99
- HGERT/HG transcript ZNF318 [1]: Ψ 1.02
- HGERT/HG BMP6 (Bone morphogenetic protein 6) [2]: Ψ 1.01
- HGERT/HG UBE2D1 (Ubiquitin-conjugating enzyme E2D1 (U8C4/5 homolog, yeast)) [2]: 0.99 Ω
- HGERT/HG CORO1A (Coronin, actin binding protein, 1A) (Prostate cancer, Actin binding): 0.94 Ω
- HGERT/HG PLEC1 (Plectin) (Prostate cancer, Actin binding): Ψ 1.03
- HGERT/HG C6orf66 (NADH dehydrogenase (ubiquinone) 1 alpha subcomplex, assembly factor 4) [3]: 0.99 Ω
- HGERT/HG CIB1 (Calcium and integrin binding 1 (calmyrin)) [3]: Ψ 1.00
- HGERT/HG GJC1 (Gap junction protein, gamma 1, 45kDa) [3]: Ψ 1.02
- HGERT/HG HPCAL1 (Hippocalcin-like 1) [3]: Ψ 1.01
- HGERT/HG SEC31A (SEC31 homolog A (S. cerevisiae)) [3]: Ψ 1.01
- HGERT/HG SLC25A24 (Solute carrier family 25 (mitochondrial carrier; phosphate carrier), member 24) [3]: 0.99 Ω
- HGERT/HG B4GALT4 (UDP-Gal:betaGlcNAc beta 1,4-galactosyltransferase, polypeptide 4) [4]: 0.98 Ω
- HGERT/HG C10orf125 (Chromosome 10 open reading frame 125) [4]: 0.99 Ω
- HGERT/HG EXTL3 (Exostoses (multiple)-like 3) [4]: Ψ 1.02
- HGERT/HG GCS2 (Mannosyl-oligosaccharide glucosidase) [4]: Ψ 1.02
- HGERT/HG ADAR (Adenosine deaminase, RNA-specific) (Prostate cancer, DNA binding): Ψ 1.01
- HGERT/HG ATF6 (Activating transcription factor 6) (Prostate cancer, DNA binding): Ψ 1.01
- HGERT/HG BBX (Bobby sox homolog (Drosophilia)) (Prostate cancer, DNA binding): Ψ 1.02
- HGERT/HG DBT (Dihydrolipoamide branched chain transacylase E2) (Prostate cancer, DNA binding): Ψ 1.01
- HGERT/HG DEAF1 (Deformed epidermal autoregulatory factor 1 (Drosophila)) (Prostate cancer, DNA binding): Ψ 1.02
- HGERT/HG FOXC1 (Forkhead box C1) (Prostate cancer, DNA binding): Ψ 1.01
- HGERT/HG FOXN2 (Forkhead box N2) (Prostate cancer, DNA binding): 0.98 Ω
- HGERT/HG FOXN3 (Forkhead box N3) (Prostate cancer, DNA binding): Ψ 1.01
- HGERT/HG FOXP1 (Forkhead box P1) (Prostate cancer, DNA binding): Ψ 1.01
- HGERT/HG GPBP1 (GC-rich promoter binding protein 1) (Prostate cancer, DNA binding): 0.99 Ω
- HGERT/HG GZF1 (GDNF-inducible zinc finger protein 1) (Prostate cancer, DNA binding): Ψ 1.01
- HGERT/HG HBP1 (HMG-box transcription factor 1) (Prostate cancer, DNA binding): 0.99 Ω
- HGERT/HG HKR1 (HKR1, GU-Kruppel zinc finger family member) (Prostate cancer, DNA binding): 0.98 Ω
- HGERT/HG HNF1B (HNF1 homeobox B) (Prostate cancer, DNA binding): Ψ 1.03
- HGERT/HG KIN (KIN, antigenic determinant of recA protein homolog (mouse)) (Prostate cancer, DNA binding): 0.99 Ω
- HGERT/HG MRRF (Mitochondrial ribosome recycling factor) (Prostate cancer, DNA binding): 0.98 Ω
- HGERT/HG MXD4 (MAX dimerization protein 4) (Prostate cancer, DNA binding): Ψ 1.02
- HGERT/HG PCBP1 (Poly(rC) binding protein 1) (Prostate cancer, DNA binding): Ψ 1.01
- HGERT/HG PIAS4 (Protein inhibitor of activated STAT, 4) (Prostate cancer, DNA binding): Ψ 1.03
- HGERT/HG POLG (Polymerase (DNA directed), gamma) (Prostate cancer, DNA binding): Ψ 1.01
- HGERT/HG POLO1 (Polymerase (DNA directed), delta 1, catalytic subunit 125kDa) (Prostate cancer, DNA binding): Ψ 1.02
- HGERT/HG POLR2K (Polymerase (RNA) II (DNA directed) polypeptide K, 7.0kDa) (Prostate cancer, DNA binding): 0.98 Ω
- HGERT/HG POLR3F (Polymerase (RNA) III (DNA directed) polypeptide F, 39 kDa) (Prostate cancer, DNA binding): 0.98 Ω
- HGERT/HG PRRX1 (Paired related homeobox 1) (Prostate cancer, DNA binding): Ψ 1.01
- HGERT/HG PUF60 (Poly-U binding splicing factor 60KDa) (Prostate cancer, DNA binding): Ψ 1.01
- HGERT/HG RABGEF1 (RAB guanine nucleotide exchange factor (GEF) 1) (Prostate cancer, DNA binding): 0.99 Ω
- HGERT/HG RNF11 (Ring finger protein 11) (Prostate cancer, DNA binding): 0.99 Ω
- HGERT/HG RPA3 (Replication protein A3, 14kDa) (Prostate cancer, DNA binding): 0.99 Ω
- HGERT/HG RYBP (RING1 and YY1 binding protein) (Prostate cancer, DNA binding): Ψ 1.01
- HGERT/HG SARNP (SAP domain containing ribonucleoprotein) (Prostate cancer, DNA binding): 0.98 Ω
- HGERT/HG SOS1 (Son of sevenless homolog 1 (Drosophila)) (Prostate cancer, DNA binding): Ψ 1.06
- HGERT/HG SOX4 (SRY (sex determining region Y)-box 4) (Prostate cancer, DNA binding): Ψ 1.01
- HGERT/HG T8RG1 (Transforming growth factor beta regulator 1) (Prostate cancer, DNA binding): Ψ 1.02
- HGERT/HG TCF12 (Transcription factor 12) (Prostate cancer, DNA binding): 0.99 Ω
- HGERT/HG TCF25 (Transcription factor 25 (basic helix-loop-helix)) (Prostate cancer, DNA binding): Ψ 1.01
- HGERT/HG TOX4 (TOX high mobility group box family member 4) (Prostate cancer, DNA binding): Ψ 1.01
- HGERT/HG TRIM26 (Tripartite motif-containing 26) (Prostate cancer, DNA binding): 0.99 Ω
- HGERT/HG TTF1 (Transcription termination factor, RNA polyrnerase 1) (Prostate cancer, DNA binding): Ψ 1.01
- HGERT/HG UBN1 (Ubinuclein 1) (Prostate cancer, DNA binding): Ψ 1.02
- HGERT/HG ZBED3 (Zinc finger, BED-type containing 3) (Prostate cancer, DNA binding): Ψ 1.01
- HGERT/HG ZNF83 (Zinc finger protein 83) (Prostate cancer, DNA binding): 0.98 Ω
- HGERT/HG ZNF232 (Zinc finger protein 232) (Prostate cancer, DNA binding): Ψ 1.01
- HGERT/HG ZNF267 (Zinc finger protein 267) (Prostate cancer, DNA binding): 0.98 Ω
- HGERT/HG ZNF562 (Zinc finger protein 562) (Prostate cancer, DNA binding): Ψ 1.03
- HGERT/HG ZNF614 (Zinc finger protein 614) (Prostate cancer, DNA binding): 0.98 Ω
- HGERT/HG ZNFT84 (Zinc finger protein 784) (Prostate cancer, DNA binding): 0.99 Ω
- HGERT/HG pdcd6 (Aryl-hydrocarbon receptor repressor) (Prostate cancer, DNA binding): 0.99 Ω
- HGERT/HG PIAS4 (Protein inhibitor of activated STAT, 4) [5]: Ψ 1.03
- HGERT/HG RNF11 (Ring finger protein 11) [5]: 0.99 Ω
- HGERT/HG RYBP (RING1 and YY1 binding protein) [5]: Ψ 1.01
- HGERT/HG TTF1 (Transcription termination factor, RNA polymerase 1) [5]: Ψ 1.01
- HGERT/HG JUP (Junction plakoglobin) (Prostate cancer, Endothelial cell-cell adhesion): Ψ 1.01
- HGERT/HG ACTN1 (Actinin, alpha 1) [6]: Ψ 1.01
- HGERT/HG FBUM1 (Gene ID 54751) [6]: Ψ 1.02
- HGERT/HG PXN (Paxillin) [6]: Ψ 1.01
- HGERT/HG RHOB (Ras homolog gene family, member B) [6]: Ψ 1.02
- HGERT/HG RHOJ (Ras homolog gene family, member J) [6]: Ψ 1.02
- HGERT/HG RSU1 (Ras suppressor protein 1) [6]: 0.99 Ω
- HGERT/HG VIM (Vimentin) [6]: 1.00 Ω
- HGERT/HG COX8A (Cytochrome c oxidase subunit VIIIA (ubiquitous)) [7]: 0.99 Ω
- HGERT/HG JUP (Junction plakaglobin) [7]: Ψ 1.01
- HGERT/HG MPHOSPH6 (M-phase phosphoprotein 6) [7]: 0.99 Ω
- HGERT/HG SDHD (Succinate dehydrogenase complex, subunit D, integral membrane protein) [7]: 0.98 Ω
- HGERT/HG SMOX (Spermine oxidase) [7]: 0.99 Ω
- HGERT/HG TCF12 (Transcription factor 12) [7]: 0.99 Ω
- HGERT/HG PAQR3 (Progestin and adipoQ receptor family member III) (Prostate cancer, Receptor activity): 0.98 Ω
- HGERT/HG PGRMC2 (Progesterone receptor membrane component 2) (Prostate cancer, Steroid hormone receptor activity): 0.98 Ω
- HGERT/HG SOAT1 (Sterol O-acyltransferase 1) (Prostate cancer, Sterol metabolism): 0.97 Ω
- HGERT/HG DUSP23 (Dual specificity phosphatase 23) [8]: 0.99 Ω
- HGERT/HG PTPLAD1 (Protein tyrosine phosphatase-like A domain containing 1) [8]: Ψ 1.01
- HGERT/HG SLC30A6 (Solute carrer family 30 (zinc transporter), member 6) [9]: 0.99 Ω
- HGERT/HG SLC30A9 (Solute carrer family 30 (zinc transporter), member 9) [9]: 0.99 Ω
- HGERT/HG SLC39A13 (Solute carrer family 39 (zinc transporter), member 13) [9]: Ψ 1.01
